From paper PMC10288352 (IET Nanobiotechnology, 2023)
Read-outs that look alike come from different tables or passages of the source.

Columns and labels:
rats = conditions: cited from earlier work
xanthine oxidase (XO) [1] = target: xanthine oxidase (XO); set-up: method as in doi:10.2991/efood.k.190802.004; conditions: read-out: IC50 (XO inhibition); cited from earlier work
xanthine oxidase (XO) [2] = conditions: read-out: IC50 (XO inhibition); cited from earlier work
xanthine oxidase (XO) [3] = target: xanthine oxidase (XO); set-up: method as in PMID 15234783; conditions: read-out: IC50 (XO inhibition); cited from earlier work
xanthine oxidase (XO) [4] = target: xanthine oxidase (XO); set-up: method as in PMID 2393948; conditions: read-out: IC50 (XO inhibition); cited from earlier work
xanthine oxidase (XO) [5] = target: xanthine oxidase (XO); set-up: method as in PMID 29567192; conditions: fluorescence quenching technology; read-out: IC50 (XO inhibition); cited from earlier work
[6] = system: PO-induced hyperuricemia mouse model; experiment: PO-induced hyperuricemic mouse model, serum uric acid; type: in vivo, ICR mice; conditions: mice
Protocol: ICR mice weighing 25 ± 2 g were purchased from Wushi Dongwu Co., LTD (Fujian, China). The protocol for animal experiments (#202030) was approved by the Animal Use and Care Committee of Putian University. To establish a hyperuricemic mouse model, we followed our previously reported method, which involved intraperitoneal injection of PO at a dose of 250 mg/kg. […] Mice in all groups except the CG were given PO to raise serum uric acid levels, while the CG mice were given 1 ml of 0.9% NaCl. […] After 2 hours, blood was obtained from the tail vein and was centrifuged at 4000 rpm for 8 min. The serum obtained was kept at −80 °C for the following assay.

Xanthine oxidase (XO) [7] = target: T1, Xanthine oxidase (XO) (Bos taurus, UniProt P80457); experiment: Kinetic analysis of XO inhibition (Lineweaver-Burk); type: biochemical, cow
Protocol: Here, [S] and [I] represent the substrate (xanthine) and inhibitor (EA) concentrations, respectively. The reaction rate and maximum reaction rate are represented by ν and Vmax, respectively. K i and K is indicate the inhibition constants of EA binding with the free XO and XO‐xanthine complex, respectively. The Michaelis‐Menten constant is denoted by the symbol K m . The type of inhibition exerted by EA on XO was determined using Equation (1).

Xanthine oxidase (XO) [8] = target: T1, Xanthine oxidase (XO); experiment: Determination of xanthine oxidase activity (UV, 290 nm); type: biochemical, cow
Protocol: Xanthine oxidase activity was determined following a previously reported method [20]. The test compounds were dissolved in DMSO, and the resulting solutions were appropriately diluted for the assay. Xanthine oxidase and xanthine solutions with concentrations of 0.04 U/mL and 0.1 mmol/L, respectively, were prepared using 0.2 mol/L phosphate buffered solution (PBS, pH 7.4) as the solvent. An aliquot of the test solution (0.1 ml) with various concentrations was added separately to XO solution (0.2 ml). The resulting solution was well mixed and incubated for 5 min at 298 K. Then, the substrate (xanthine) solution was pipetted into the mixture to initiate the enzymatic reaction, and the OD value of the resulting solution was recorded every 60 s at 290 nm using a UV spectrometer (UV 2550, SHIMADZU) at 298 K. Xanthine oxidase activity was determined without adding an inhibitor and was considered 100%. […] Each test was performed three times (n = 3). The equation for calculating the relative activity (RA) of XO is as follows: RA (%) = R i/R c × 100%, where R i and R c represent the reaction rates of the solution with and without inhibitors, respectively. The IC50 value was calculated based on the plot of RA versus inhibitor concentration.

[9] = cited from earlier work
mice = experiment: NOEL estimated for mice from rat value; type: in vivo
Xanthine oxidase (XO) [10] = target: T1, Xanthine oxidase (XO); experiment: Fluorescence titration (quenching) assay; type: binding, cow; conditions: for Kq (quenching rate constant): τ0 10^−8 s
Protocol: An aliquot of XO solution (2.0 ml, 0.04 U/mL) was placed in a quartz cuvette (1 cm) and titrated with 0.1 ml EA solution (0.1 mmol/L) each time. The mixture was then placed in a thermostatic bath, and after 5 min, fluorescence spectra ranging from 290 to 500 nm (excitation: 280 nm) were recorded at 298, 304 and 310 K using the FS5 spectrofluorometer (Edinburgh Instruments, England). The fluorescence background was corrected by subtracting the PBS blank. Additionally, to account for EA's UV absorption, all fluorescence data were corrected according to the following equation: (4) Fc=Fme^A1+A2/2
Here, F m and F c represent the measured and corrected fluorescence, respectively, and A1 and A2 denote EA UV absorbance at 280 nm (excitation wavelength) and 404 nm (emission wavelength), respectively.
The Stern‐Volmer equation shown below was used to distinguish the quenching mechanism. (5) F0/F=1+Kqτ0[Q]=1+Ksv[Q]
The fluorescence intensities with and without EA are indicated by the symbols F and F 0, respectively. The quenching rate constant of the biological macromolecule is represented by K q . The average lifetime of fluorophore is represented by the symbol τ0 (10^−8 s). K SV is the dynamic quenching constant of Stern–Volmer; [Q] is the concentration of EA. […] Then K SV values at 298, 304 and 310 K were calculated to be 1.881 × 10^5, 1.661 × 10^5, and 1.455 × 10^5 L/mol, respectively, using the Stern‐Volmer equation. […] Similarly, the K q values at 298, 304 and 310 K were determined to be 1.881 × 10^13, 1.661 × 10^13, and 1.455 × 10^13 L/(mol·s), respectively.
(6) logF0−F/F=logKa+nlog[Q]
To determine the interaction forces between EA and XO, such as hydrogen bonding, hydrophobic interaction, van der Waals force, and electrostatic force, thermodynamic parameters including […], and Gibbs free energy (△G) were analysed using the Van't Hoff Equation (7) and Gibbs‐Helmholtz Equation (8) at different temperatures. The equations are as follows: (7) logKa=−∆H/2.303RT+∆S/2.303R (8) ∆G=∆H−T∆S

[11] = Van't Hoff equation, 298, 304 and 310 K

T1 sequence (P80457 whole entry): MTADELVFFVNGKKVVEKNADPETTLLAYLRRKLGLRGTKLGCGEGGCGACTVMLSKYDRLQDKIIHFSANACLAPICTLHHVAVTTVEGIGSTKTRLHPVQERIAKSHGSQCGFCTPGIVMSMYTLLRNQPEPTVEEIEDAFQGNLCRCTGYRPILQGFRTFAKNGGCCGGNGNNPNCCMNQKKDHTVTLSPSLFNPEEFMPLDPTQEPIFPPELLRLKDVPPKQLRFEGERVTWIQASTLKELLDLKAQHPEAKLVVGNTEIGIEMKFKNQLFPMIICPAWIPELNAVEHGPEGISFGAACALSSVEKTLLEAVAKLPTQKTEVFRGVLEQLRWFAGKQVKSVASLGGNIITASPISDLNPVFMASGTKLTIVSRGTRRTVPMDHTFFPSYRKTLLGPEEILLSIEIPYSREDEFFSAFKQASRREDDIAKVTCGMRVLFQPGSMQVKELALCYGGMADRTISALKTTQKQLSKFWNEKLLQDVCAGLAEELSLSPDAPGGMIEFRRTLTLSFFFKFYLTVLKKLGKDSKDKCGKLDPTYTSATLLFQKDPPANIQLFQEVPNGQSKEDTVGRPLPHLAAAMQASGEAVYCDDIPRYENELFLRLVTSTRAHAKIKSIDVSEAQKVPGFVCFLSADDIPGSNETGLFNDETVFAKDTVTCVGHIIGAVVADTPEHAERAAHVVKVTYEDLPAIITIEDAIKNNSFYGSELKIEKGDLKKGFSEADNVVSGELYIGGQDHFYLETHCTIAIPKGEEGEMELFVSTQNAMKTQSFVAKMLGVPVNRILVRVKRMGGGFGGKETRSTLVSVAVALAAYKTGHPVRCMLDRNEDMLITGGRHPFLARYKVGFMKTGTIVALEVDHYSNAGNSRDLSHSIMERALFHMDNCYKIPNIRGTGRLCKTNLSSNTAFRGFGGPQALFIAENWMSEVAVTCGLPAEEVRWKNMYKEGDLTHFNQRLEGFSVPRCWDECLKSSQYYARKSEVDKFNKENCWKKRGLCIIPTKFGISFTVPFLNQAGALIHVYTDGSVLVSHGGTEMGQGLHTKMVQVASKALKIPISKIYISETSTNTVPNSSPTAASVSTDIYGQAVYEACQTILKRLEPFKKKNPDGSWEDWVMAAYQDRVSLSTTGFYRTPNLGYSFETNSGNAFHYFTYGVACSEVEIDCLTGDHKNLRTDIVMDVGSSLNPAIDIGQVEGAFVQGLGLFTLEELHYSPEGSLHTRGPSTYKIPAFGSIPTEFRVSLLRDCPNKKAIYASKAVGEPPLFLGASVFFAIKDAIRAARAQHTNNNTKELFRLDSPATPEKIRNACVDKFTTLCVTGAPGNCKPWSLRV

For O=c1oc2c(O)c(O)cc3c(=O)oc4c(O)c(O)cc1c4c23 [EA, Ellagic acid], the “Safe dietary supplement dose” value (rats; rat, in vivo) is listed as ≤ 3011 mg/kg/day, the “Safe dietary supplement level” value (rats; rat, in vivo) is listed as “up to 5%” and the “no-observed-effect level (NOEL)” value (rats; rats) is listed as 3011 mg/kg/day. For the same compound, the IC50 (xanthine oxidase (XO) [1]) was 18 µM, the IC50 (xanthine oxidase (XO) [2]) was 166 µM and the IC50 (xanthine oxidase (XO) [3]) was 71.5 µM. The IC50 (xanthine oxidase (XO) [4]) was 3.1 µM, the IC50 (xanthine oxidase (XO) [5]) was 6.5 µM and the Serum uric acid ([6]; 160 mg/kg intragastrically after PO 250 mg/kg i.p., MG 6.18 ± 0.18) was 5.09 ± 0.57 mg/dL. The Serum uric acid ([6]; 320 mg/kg intragastrically after PO 250 mg/kg i.p., MG 6.18 ± 0.18) was 4.19 ± 0.53 mg/dL, the Serum uric acid ([6]; 480 mg/kg intragastrically after PO 250 mg/kg i.p., MG 6.18 ± 0.18) was 2.87 ± 0.41 mg/dL and the “Type of inhibition on XO” value (Xanthine oxidase (XO) [7]; Lineweaver-Burk plot) was “mixed‐type inhibitor”. The “Kis (inhibition constant, binding with XO-xanthine complex)” value (Xanthine oxidase (XO) [7]; [XO] = 0.04 U/mL, xanthine 6.25 to 50 μmol/L) was 57.24 ± 0.23 µmol/L, the Ki (Xanthine oxidase (XO) [7]; [XO] = 0.04 U/mL, xanthine 6.25 to 50 μmol/L, read-out: Ki (inhibition constant, binding with free XO)) was 10.6 ± 0.08 µM and the IC50 (Xanthine oxidase (XO) [8]; T = 298 K, pH 7.4, [xanthine] = 0.1 mmol/L, [XO] = 0.04 U/mL, read-out: IC50 (XO inhibition)) was 22.97 ± 0.12 µM. The “Reversibility of XO inhibition” value (Xanthine oxidase (XO) [8]; plots of ν versus [XO], [xanthine] = 0.1 mmol/L) was “reversible inhibitor”, the Bioavailability [9] was “very poor” and the Permeability [9] was “limited”. The Solubility [9] was “low”, the “NOEL, estimated value for mice” value (mice) was 4215 mg/kg/day and the Fluorescence quenching mechanism (Xanthine oxidase (XO) [10]) was “static quenching”. For the same compound, the “KSV (Stern-Volmer dynamic quenching constant)” value (Xanthine oxidase (XO) [10]; 298 K) was 188100 L/mol, the Ksv (Xanthine oxidase (XO) [10]; 298 K) was 1.881 ± 0.05 ×10^5 L/mol and the “n (number of binding sites)” value (Xanthine oxidase (XO) [10]; 298 K) was 1.183 ± 0.02. For the same compound, the “△G” value (Xanthine oxidase (XO) [10]; 298 K) was -5.753 ± 0.0669 kcal/mol, the “Kq (quenching rate constant)” value (Xanthine oxidase (XO) [10]; 298 K) was 1.881e+13 M⁻¹ s⁻¹ and the “KSV (Stern-Volmer dynamic quenching constant)” value (Xanthine oxidase (XO) [10]; 304 K) was 166100 L/mol. For the same compound, the Ksv (Xanthine oxidase (XO) [10]; 304 K) was 1.661 ± 0.03 ×10^5 L/mol, the “n (number of binding sites)” value (Xanthine oxidase (XO) [10]; 304 K) was 1.236 ± 0.04 and the “△G” value (Xanthine oxidase (XO) [10]; 304 K) was -5.758 ± 0.0765 kcal/mol. The “Kq (quenching rate constant)” value (Xanthine oxidase (XO) [10]; 304 K) was 1.661e+13 M⁻¹ s⁻¹, the “KSV (Stern-Volmer dynamic quenching constant)” value (Xanthine oxidase (XO) [10]; 310 K) was 145500 L/mol and the Ksv (Xanthine oxidase (XO) [10]; 310 K) was 1.455 ± 0.04 ×10^5 L/mol. The “n (number of binding sites)” value (Xanthine oxidase (XO) [10]; 310 K) was 1.308 ± 0.02, the “△G” value (Xanthine oxidase (XO) [10]; 310 K) was -5.762 ± 0.0813 kcal/mol and the “Kq (quenching rate constant)” value (Xanthine oxidase (XO) [10]; 310 K) was 1.455e+13 M⁻¹ s⁻¹. The “XO fluorescence intensity decreased to” value (Xanthine oxidase (XO) [10]; EA […] μmol/L, 404 nm, Ex 280 nm) was 14.15%, the “△H” value (Xanthine oxidase (XO) [10]; [11]) was -5.514 ± 0.0598 kcal/mol and the “△S” value (Xanthine oxidase (XO) [10]; [11]) was 3.36 ± 0.03 J/mol/K.
Work on Oc1ncnc2[nH]ncc12 [allopurinol, reference compound] yielded a Serum uric acid ([6]; 20 mg/kg intragastrically after PO 250 mg/kg i.p., MG 6.18 ± 0.18, CG 2.16 ± 0.51) of 2.01 ± 0.34 mg/dL.
